Results reported in patent US20010027209A1, “Method and composition for treating and preventing mycobacterium infections” (Sarawak Medichem Pharmaceuticals, Inc., priority 1998, published 2001).
Converted amounts (≈) assume the structure as drawn. “And” between values parts separate entries of the source, which are not always exact repeats. Equal values may be shown once. Read-outs that look alike come from different tables or passages of the source.

Experiments:
[1] = system: Mycobacterium tuberculosis H37Rv; experiment: in vitro primary screening assay in BACTEC 12B medium, BACTEC 460 radiometric system; format: cell-based; conditions: for MIC: M. tuberculosis H37Rv; for inhibition at 12.5 µg/mL: H37RV
Mtb = conditions: against Mtb, background section; cited from earlier work
M. tuberculosis H37Rv = experiment: actual minimum inhibitory concentration (MIC) at lower concentrations, BACTEC 460; format: cell-based; conditions: Mycobacterium tuberculosis, lowest concentration inhibiting 99% of the inoculum
[2] = concentration 12.5 μg/mL, BACTEC 12B medium
[3] = table of Example 38, 12.5 μg/mL
[4] = Mycobacterium tuberculosis, concentration 12.5 μg/mL, BACTEC 12B medium, read-out: inhibition against Mtb H37Rv
[5] = Mycobacterium tuberculosis, table of Example 38, 12.5 μg/mL, read-out: % Inhibition
[6] = Mycobacterium tuberculosis, table of Example 38, read-out: MIC

Compound | inhibition against Mtb H37Rv [1, 2] | % Inhibition [1, 3] [%] | MIC ([1]; table of Example 38) [µg/mL] | other results
(−)-7,8-dihydrosoulattrolide [(−)-7,8-Dihydrosoulatrolide] | 99% | 99 | <12.5 | 
NC(=O)c1cnccn1 [Pyrazinamide] |  |  |  | MIC (Mtb): 20 µg/mL (≈ 162 µM)
(−)-Calanolide A | 98% |  |  | 
C[C@H]1[C@H](C)Oc2c3c(c4c(-c5ccccc5)cc(=O)oc4c2[C@H]1O)OC(C)(C)C=C3 [Soulattrolide] |  |  |  | inhibition at 12.5 µg/mL [1, 4]: 99%; inhibition at 12.5 µg/mL [1, 5]: 99%; MIC [1, 6]: < 12.5 µg/mL
CCCc1cc(=O)oc2c3c(c4c(c12)OC(C)(C)C=C4)OC(C)C(C)C3=O (racemic) [(±)-Trans-ketone, 10,11-trans-dihydro-4-propyl-6,6,10,11-tetramethyl-2 H,6 H,12 H-benzo[1,2-b:3,4b′:5,6-b″]-tripyran-2,12-dione] |  | 59 | <12.5 | 
CCCc1cc(=O)oc2c3c(c4c(c12)OC(C)(C)C=C4)OC(C)C(C)C3=O (single isomer, unassigned; (-)) [(−)-Trans-ketone] |  | 78 | <12.5 | 
CCCc1cc(=O)oc2c3c(c4c(c12)OC(C)(C)C=C4)O[C@@H](C)[C@H](C)[C@@H]3O [Costatolide, (−)-calanolide B] |  |  |  | inhibition at 12.5 µg/mL [1, 4]: 99%; inhibition at 12.5 µg/mL [1, 5]: 99%; MIC [1, 6]: < 12.5 µg/mL
(+)-Calanolide A | 98% and 96% |  |  | 
CCCc1cc(=O)oc2c3c(c4c(c12)OC(C)(C)CC4)OC(C)C(C)C3=O (racemic) [(±)-Trans-dihydroketone, (±)-10,11-trans-4-Propyl-7,8,10,11-tetrahydro-6,6,10,11-tetramethyl-2 H,6 H,12 H-benzo[1,2-b:3,4-b′:5,6-b″]tripyran-2,12-dione] |  | 43 | <12.5 | 
CO[C@H]1/C=C/O[C@@]2(C)Oc3c(C)c(O)c4c(O)c(c(/C=N/N5CCN(C)CC5)c(O)c4c3C2=O)NC(=O)/C(C)=C\C=C\[C@H](C)[C@H](O)[C@@H](C)[C@@H](O)[C@@H](C)[C@H](OC(C)=O)[C@@H]1C [rifampicin] |  |  |  | MIC (M. tuberculosis H37Rv): 0.06 µg/mL (≈ 0.0729 µM)
